Measured values published in patent US10653717B2, “Antibiotic compositions” (priority 2016, dated 2020).
Where two headings read alike, the source gives them in different places.

How the values were obtained:
[1] = system: PA-1: Pseudomonas aeruginosa 1298#
Procedure: (§1) There are five most difficult-to-treat MDR Gram-negative pathogen species in the clinic, which are also typical GSH-positive bacteria: Klebsiella pneumonia, Acinetobacter baumannii, Pseudomonas aeruginosa, Enterobacter cloacae and Escherichia coli. Two strains of each species were isolated, overnight cultures were diluted 1:1000 times in LB medium, and treated with Ag^+ with a serial concentration of ebselen in combination for 16 h. […] Among these five species, A. baumannii and E. cloacae are very readily formed drug-resistant strains, which are needed to be treated by or the fourth-generation cephalosporin in the clinic, including imipenem, cefepime, and cefotaxime, etc.
(§2) Ten clinical isolated MDR Gram-negative (GSH-positive) strains were grown until an OD600 nm of 0.4 and were diluted 1:100 into 100 μl of LB medium in 96 micro-well plates. Serial dilutions of 100 μl ebselen and AgNO3 were added to the individual wells. […] The culture treated with 0.8% (v/v) DMSO was used as a control.

ECO-2: E. coli 2219# = system: ECO-2: E. coli 2219#
Procedure: as §1, §2

[2] = system: KP-1: Klebsiella pneumoniae subsp. pneumoniae 13#
Procedure: as §1, §2

[3] = system: ECO-1: Escherichia coli 1139#
Procedure: as §1, §2

[4] = system: KP-2: K. pneumoniae subsp. pneumoniae 0322#
Procedure: as §1, §2

E. coli TrxR = E. coli TrxR (Escherichia coli, UniProt P0A9P4)
Procedure: (§3) Since ebselen is a known reversible competitive inhibitor of bacterial TrxR, the effect of Ag^+ on the activity of E. coli TrxR and Trx was investigated.
(§4) Inhibition of recombinant bacterial TrxR by Silver was performed by using E. coli enzyme. The experiments were performed with 96 micro-well plates in the solution containing 50 mM Tris.HCl (pH 7.5), 200 μM NADPH, 1 mM EDTA, 1 mM DTNB, in the presence of 5 μM E. coli Trx. The absorbance at 412 nm was measured for 5 min with a VERSA micro-well plate reader and the slope of initial 2 min was used to represent TrxR activity. The Trx activity was detected by this method, coupled with the use of 100 nM E. coli TrxR instead of 5 μM E. coli Trx in the reaction mixture.

E. coli Trx1 = E. coli Trx1 (Escherichia coli, UniProt P0AA25)
Procedure: as §3, §4

ECL-2: E. cloacae 2301# = assay: MIC of silver with antibiotics on clinical isolated MDR Gram-negative bacteria; type: cell-based, Enterobacter cloacae; settings: antibiotic 4 μM
Procedure: (§5) There are five clinically most difficult-to-treat MDR Gram-negative pathogen species: Klebsiella pneumonia, Acinetobacter baumannii, Pseudomonas aeruginosa, Enterobacter cloacae and Escherichia coli. One strain from each species was isolated, and overnight cultures were diluted 1:1000 times in LB medium, and treated with serial concentrations of Ag^+ and antibiotics in combinations for 24 h (Table 10).
(§6) Five clinical isolated MDR Gram-negative strains were grown until an OD600 nm of 0.4, and were diluted 1:1,000 into 100 μl LB medium in 96 micro-well plates. […] The cultures treated with the same serial dilutions of 100 μl ebselen and silver nitrate were used as the positive control.

[5] = system: PA-1: Pseudomonas aeruginosa 1298#; assay: as above; type: cell-based; settings: antibiotic 4 μM
Procedure: as §5, §6

[6] = system: AB-1: Acinetobacter baumannii H#; assay: as above; type: cell-based; settings: antibiotic 4 μM
Procedure: as §5, §6

[7] = system: ECO-1: Escherichia coli 1139#; assay: as above; type: cell-based; settings: antibiotic 4 μM
Procedure: as §5, §6

Chain of E. coli TrxR (P0A9P4 2-321 limits assumed): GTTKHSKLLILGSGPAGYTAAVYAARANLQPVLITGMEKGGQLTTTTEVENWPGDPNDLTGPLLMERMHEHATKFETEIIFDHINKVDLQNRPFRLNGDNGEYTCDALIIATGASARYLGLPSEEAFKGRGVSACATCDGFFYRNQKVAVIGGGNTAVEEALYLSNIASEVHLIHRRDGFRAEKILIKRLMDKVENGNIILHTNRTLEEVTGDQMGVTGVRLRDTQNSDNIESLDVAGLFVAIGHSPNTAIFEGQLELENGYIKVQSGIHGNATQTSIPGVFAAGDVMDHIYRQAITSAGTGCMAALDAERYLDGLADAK
Chain of E. coli Trx1 (P0AA25 2-109): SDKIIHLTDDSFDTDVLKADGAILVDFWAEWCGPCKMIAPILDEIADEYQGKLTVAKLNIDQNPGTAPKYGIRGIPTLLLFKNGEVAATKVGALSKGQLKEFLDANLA

## O=[N+]([O-])[O-].[Ag+] [silver, silver nitrate]
[1]; Ebselen 0 μM
  MIC of silver in the presence of ebselen: 80 µM
[1]; Ebselen 1 μM
  MIC of silver in the presence of ebselen: 80 µM
[1]; Ebselen 2 μM
  MIC of silver in the presence of ebselen: 20 µM
[1]; Ebselen 4 μM
  MIC of silver in the presence of ebselen: 20 µM
ECO-2: E. coli 2219#; Ebselen 0 μM
  MIC of silver in the presence of ebselen: 80 µM
ECO-2: E. coli 2219#; Ebselen 1 μM
  MIC of silver in the presence of ebselen: 80 µM
ECO-2: E. coli 2219#; Ebselen 2 μM
  MIC of silver in the presence of ebselen: 40 µM
ECO-2: E. coli 2219#; Ebselen 4 μM
  MIC of silver in the presence of ebselen: 10 µM
[2]; Ebselen 0 μM
  MIC of silver in the presence of ebselen: 80 µM
[2]; Ebselen 1 μM
  MIC of silver in the presence of ebselen: 80 µM
[2]; Ebselen 2 μM
  MIC of silver in the presence of ebselen: 40 µM
[2]; Ebselen 4 μM
  MIC of silver in the presence of ebselen: 10 µM
[3]; Ebselen 0 μM
  MIC of silver in the presence of ebselen: 40 µM
[3]; Ebselen 1 μM
  MIC of silver in the presence of ebselen: 20 µM
[3]; Ebselen 2 μM
  MIC of silver in the presence of ebselen: 10 µM
[3]; Ebselen 4 μM
  MIC of silver in the presence of ebselen: 5 µM
[4]; Ebselen 0 μM
  MIC of silver in the presence of ebselen: 80 µM
[4]; Ebselen 1 μM
  MIC of silver in the presence of ebselen: 40 µM
[4]; Ebselen 2 μM
  MIC of silver in the presence of ebselen: 20 µM
[4]; Ebselen 4 μM
  MIC of silver in the presence of ebselen: 20 µM
E. coli TrxR; in the presence of reduced E. coli Trx1
  inhibitory efficiency toward TrxR: decreased
E. coli TrxR; read-out: IC50 on E. coli TrxR, 100 nM NADPH-pre-incubated E. coli TrxR
  IC50: ~0.05 µM
E. coli Trx1; Trx1 activity after desalting
  reversibility of the inhibition of Trx1: irreversible
E. coli Trx1; along with the increase of Ag^+ concentration, 10 μM Trx1
  activity of Trx: decreased

## O=c1c2ccccc2[se]n1-c1ccccc1 [ebselen, 2-phenyl-1,2-benzisoselenazol-3(2H)-one]
ECL-2: E. cloacae 2301#
  MIC of silver in the presence of different antibiotics: 10 µM
[5]
  MIC of silver in the presence of different antibiotics: 20 µM
[6]
  MIC of silver in the presence of different antibiotics: 10 µM
[7]
  MIC of silver in the presence of different antibiotics: 5 µM
